These results are taken from ChEMBL document CHEMBL3856279, “The discovery of new cytotoxic pyrazolopyridine derivatives” (Bioorg Med Chem Lett, 2016).

Test [1] in a line: Antiproliferative activity against human SKOV3 cells after 48 hrs by MTS assay. Type of test: functional, cell-based. The conditions noted are these: SK-OV-3, 48 h. Background: Tetrazolium dyes change colour on reduction, which living cells bring about.
Test [2] in a line: Antiproliferative activity against human WI38 cells after 48 hrs by MTS assay. The format is cell-based. The conditions noted are these: WI-38, 48 h.
Test [3] in a line: Antiproliferative activity against human MIAPaCa2 cells after 48 hrs by MTS assay. The format is functional, cell-based. The conditions noted are these: MIA PaCa-2, 48 h.
Test [4] in a line: Cell cycle arrest in human PC3 cells assessed as accumulation at G2/M phase at antiproliferative IC50 after 48 hrs by propidium iodide staining based FACS analysis (reference value: 24 +/- 2.9%). Type of test: functional. As to conditions: PC-3. Background: Flow cytometry measures light scatter and fluorescence of single cells or particles in a stream.
Test [5] in a line: Antiproliferative activity against human PC3 cells after 48 hrs by MTS assay. The format is functional, cell-based. As to conditions: PC-3, 48 h.
A short description of test [6]: Cell cycle arrest in human PC3 cells assessed as accumulation at G0/G1 phase at antiproliferative IC50 after 48 hrs by propidium iodide staining based FACS analysis (reference value: 38.3 +/- 0.7%). The format is functional. The conditions noted are these: PC-3.
The nature of test [7]: Induction of apoptosis in human PC3 cells assessed as appearance of apoptotic nuclei at antiproliferative IC50 after 48 hrs by propidium iodide staining based FACS analysis (reference value: 0.7 +/- 0.1%). Type of test: functional, PC-3.
The nature of test [8]: Cell cycle arrest in human PC3 cells assessed as accumulation at S phase at antiproliferative IC50 after 48 hrs by propidium iodide staining based FACS analysis (reference value: 37.7 +/- 2.2%). As to conditions: PC-3. The format is functional.
The nature of test [9]: Antiproliferative activity against human A2058 cells after 48 hrs by MTS assay. Type of test: functional, cell-based. As to conditions: A2058, 48 h.
The nature of test [10]: Antiproliferative activity against human DU145 cells after 48 hrs by MTS assay. The format is functional, cell-based. The conditions noted are these: DU-145, 48 h.

A value given as a limit tells only on which side of the number the result lay.

In general, IC50 refers to the concentration that inhibits the measured activity by half. In the case of `Clc1cc2cn[nH]c2c(Nc2ccccc2)n1`, the IC50 in test [1] was 34.2 µM; in [2], > 50 µM; in [3] it was 36.2 µM.
For `COc1cc(Nc2nccc3c(-c4ccccc4)n[nH]c23)cc(OC)c1OC`, the Activity in [4] was found to be 19.2%; in test [6], 80.8%; in test [7], 25.8%; in test [8] it was 0%. Moreover, the IC50 came out at 0.38 µM in [5]; 0.73 µM in [1]; 14.9 µM in test [2]; 3.8 µM in [3]; 0.89 µM in test [9]; 0.92 µM in [10].
Consider `CC(C)c1n[nH]c2c(Nc3ccccc3)nc(Cl)cc12`, for which the IC50 in test [1] is > 50 µM; in test [2] it was 38.7 µM; in test [3] it was 21.5 µM.
Consider `CC(C)c1n[nH]c2c(Nc3ccccc3)nccc12`, for which the values for the IC50 in test [1], in [2] and in test [3] were 48.3 µM, > 50 µM and 41.2 µM, respectively.
On the same counts, the results for `COc1cc(Nc2nccc3cn[nH]c23)cc(OC)c1OC` are > 50 µM, > 50 µM and > 50 µM.
Consider `c1ccc(Nc2nccc3c(-c4ccccc4)n[nH]c23)cc1`, for which the values for the IC50 in test [1], in [2] and in [3] were 22.1 µM, 24.7 µM and 9 µM, respectively.
For `COc1cc(Nc2nccc3c(C(C)C)n[nH]c23)cc(OC)c1OC`, in that order: 22.9 µM, > 50 µM and 10 µM.
For `COc1cc(Nc2nc(Cl)cc3c(C(C)C)n[nH]c23)cc(OC)c1OC`, in that order: 5.6 µM, 43.8 µM and 6.1 µM.
Take `COc1cc(Nc2nc(Cl)cc3c(-c4ccccc4)n[nH]c23)cc(OC)c1OC`: the Activity came out at 23.5% in [4], 46.2% in test [6], 0.9% in test [7] and 30.3% in test [8]. For the same compound, the IC50 came to 15 µM in [5], 5.9 µM in test [1], 21.9 µM in test [2] and 6.7 µM in test [3].
Regarding `Clc1cc2c(-c3ccccc3)n[nH]c2c(Nc2ccccc2)n1`, the results for the IC50 in test [1], in test [2] and in [3] were 2.5 µM, 23.4 µM and 4.3 µM, respectively.
For `c1ccc(Nc2nccc3cn[nH]c23)cc1`, in that order: > 50 µM, > 50 µM and > 50 µM.
With `COc1cc(Nc2nc(Cl)cc3cn[nH]c23)cc(OC)c1OC`, the IC50 in [1] is 13.1 µM; in [2] it was > 50 µM; in [3] it was 16.2 µM.
